From ChEMBL document CHEMBL1201862, “PubChem BioAssay data set” (2004)
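Following 48 hours of exposure in 96-well plates, responses at five concentrations were used to interpolate endpoints linearly. Abbreviation: GI50, concentration required for 50% inhibition of growth.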 Active and inactive are the calls of the source. No stated cut-off is given here; in the data, active = GI50 up to about 1.1 µM and inactive = higher.

Tests used:
Test in all cases: NCI tumour cell line growth inhibition, 48 h
[1] = test system: 786-0
[2] = test system: A498
[3] = test system: A549
[4] = test system: ACHN
[5] = test system: CAKI-1
[6] = test system: CCRF-CEM
[7] = test system: COLO 205
[8] = test system: DLD-1
[9] = test system: DMS-114
[10] = test system: DMS-273
[11] = test system: EKVX
[12] = test system: HCC 2998
[13] = test system: HCT-116
[14] = test system: HCT-15
[15] = test system: HL-60
[16] = test system: HOP-18
[17] = test system: HOP-62
[18] = test system: HOP-92
[19] = test system: HT-29
[20] = test system: IGROV-1
[21] = test system: K562
[22] = test system: KM-20L2
[23] = test system: KM12
[24] = test system: LOX IMVI
[25] = test system: LXFL 529
[26] = test system: M14
[27] = test system: M19-MEL
[28] = test system: MOLT-4
[29] = test system: Malme-3M
[30] = test system: NCI-H226
[31] = test system: NCI-H23
[32] = test system: NCI-H460
[33] = test system: OVCAR-3
[34] = test system: OVCAR-4
[35] = test system: OVCAR-5
[36] = test system: OVCAR-8
[37] = test system: RPMI-8226
[38] = test system: SF-268
[39] = test system: SF-295
[40] = test system: SF-539
[41] = test system: SK-MEL-28
[42] = test system: SK-MEL-2
[43] = test system: SK-MEL-5
[44] = test system: SK-OV-3
[45] = test system: SN12C
[46] = test system: SNB-19
[47] = test system: SNB-75
[48] = test system: SNB-78
[49] = test system: SR
[50] = test system: SW-620
[51] = test system: TK-10
[52] = test system: U-251
[53] = test system: UACC-257
[54] = test system: UACC-62
[55] = test system: UO-31
[56] = test system: XF498
[57] = test system: NCI-H522
[58] = test system: RXF 393

SMILES: CCc1cc(Cc2cc(CC)c(NC(=O)C(=O)Cc3ccccn3)c(CC)c2Cl)c(Cl)c(CC)c1NC(=O)C(=O)Cc1ccccn1
- GI50 [1]: > 100 µM (inactive)
- GI50 [2]: > 100 µM (inactive)
- GI50 [3]: > 100 µM (inactive)
- GI50 [4]: > 100 µM (inactive)
- GI50 [5]: > 100 µM (inactive)
- GI50 [6]: > 100 µM (inactive)
- GI50 [7]: 64 µM (inactive)
- GI50 [8]: > 100 µM (inactive)
- GI50 [9]: 96.8 µM (inactive)
- GI50 [10]: > 100 µM (inactive)
- GI50 [11]: > 100 µM (inactive)
- GI50 [12]: > 100 µM (inactive)
- GI50 [13]: > 100 µM (inactive)
- GI50 [14]: 39.4 µM
- GI50 [15]: > 100 µM (inactive)
- GI50 [16]: > 100 µM (inactive)
- GI50 [17]: > 100 µM (inactive)
- GI50 [18]: > 100 µM (inactive)
- GI50 [19]: 70 µM (inactive)
- GI50 [20]: > 100 µM (inactive)
- GI50 [21]: > 100 µM (inactive)
- GI50 [22]: > 100 µM (inactive)
- GI50 [23]: 78.3 µM (inactive)
- GI50 [24]: 41.8 µM (inactive)
- GI50 [25]: 53 µM (inactive)
- GI50 [26]: 75.2 µM (inactive)
- GI50 [27]: > 100 µM (inactive)
- GI50 [28]: > 100 µM (inactive)
- GI50 [29]: > 100 µM (inactive)
- GI50 [30]: > 100 µM (inactive)
- GI50 [31]: > 100 µM (inactive)
- GI50 [32]: > 100 µM (inactive)
- GI50 [33]: > 100 µM (inactive)
- GI50 [34]: > 100 µM (inactive)
- GI50 [35]: > 100 µM (inactive)
- GI50 [36]: > 100 µM (inactive)
- GI50 [37]: > 100 µM (inactive)
- GI50 [38]: > 100 µM (inactive)
- GI50 [39]: > 100 µM (inactive)
- GI50 [40]: > 100 µM (inactive)
- GI50 [41]: > 100 µM (inactive)
- GI50 [42]: > 100 µM (inactive)
- GI50 [43]: > 100 µM (inactive)
- GI50 [44]: > 100 µM (inactive)
- GI50 [45]: > 100 µM (inactive)
- GI50 [46]: > 100 µM (inactive)
- GI50 [47]: > 100 µM (inactive)
- GI50 [48]: > 100 µM (inactive)
- GI50 [49]: > 100 µM (inactive)
- GI50 [50]: 15.7 µM (inactive)
- GI50 [51]: > 100 µM (inactive)
- GI50 [52]: 19.4 µM (inactive)
- GI50 [53]: 40.4 µM (inactive)
- GI50 [54]: > 100 µM (inactive)
- GI50 [55]: > 100 µM (inactive)
- GI50 [56]: > 100 µM (inactive)

SMILES: CCCCN(C)CC(C(C)=O)C(c1ccccc1)c1c(O)c2ccccc2oc1=O (centres undefined)
- GI50 [1]: > 100 µM (inactive)
- GI50 [2]: > 100 µM (inactive)
- GI50 [3]: > 100 µM (inactive)
- GI50 [4]: > 100 µM (inactive)
- GI50 [5]: > 100 µM (inactive)
- GI50 [6]: > 100 µM (inactive)
- GI50 [7]: > 100 µM (inactive)
- GI50 [8]: > 100 µM (inactive)
- GI50 [9]: > 100 µM (inactive)
- GI50 [10]: > 100 µM (inactive)
- GI50 [11]: > 100 µM (inactive)
- GI50 [13]: > 100 µM (inactive)
- GI50 [14]: > 100 µM
- GI50 [15]: > 100 µM (inactive)
- GI50 [16]: > 100 µM (inactive)
- GI50 [17]: > 100 µM (inactive)
- GI50 [19]: > 100 µM (inactive)
- GI50 [20]: > 100 µM (inactive)
- GI50 [21]: > 100 µM (inactive)
- GI50 [22]: > 100 µM (inactive)
- GI50 [23]: > 100 µM (inactive)
- GI50 [24]: > 100 µM (inactive)
- GI50 [25]: > 100 µM (inactive)
- GI50 [26]: > 100 µM (inactive)
- GI50 [27]: > 100 µM (inactive)
- GI50 [28]: > 100 µM (inactive)
- GI50 [29]: > 100 µM (inactive)
- GI50 [30]: > 100 µM (inactive)
- GI50 [31]: 62.2 µM (inactive)
- GI50 [32]: > 100 µM (inactive)
- GI50 [57]: > 100 µM (inactive)
- GI50 [33]: > 100 µM (inactive)
- GI50 [34]: > 100 µM (inactive)
- GI50 [35]: > 100 µM (inactive)
- GI50 [36]: > 100 µM (inactive)
- GI50 [37]: > 100 µM (inactive)
- GI50 [58]: > 100 µM (inactive)
- GI50 [38]: > 100 µM (inactive)
- GI50 [39]: > 100 µM (inactive)
- GI50 [40]: > 100 µM (inactive)
- GI50 [41]: > 100 µM (inactive)
- GI50 [42]: > 100 µM (inactive)
- GI50 [43]: > 100 µM (inactive)
- GI50 [44]: > 100 µM (inactive)
- GI50 [45]: > 100 µM (inactive)
- GI50 [46]: > 100 µM (inactive)
- GI50 [47]: 65.2 µM (inactive)
- GI50 [48]: > 100 µM (inactive)
- GI50 [49]: > 100 µM (inactive)
- GI50 [50]: > 100 µM (inactive)
- GI50 [51]: > 100 µM (inactive)
- GI50 [52]: > 100 µM (inactive)
- GI50 [53]: > 100 µM (inactive)
- GI50 [54]: > 100 µM (inactive)
- GI50 [55]: > 100 µM (inactive)
- GI50 [56]: > 100 µM (inactive)

SMILES: CC(=O)Oc1cc(OC(C)=O)c2c(=O)c3ccccc3[nH]c2c1
- GI50 [3]: 61.9 µM (inactive)
- GI50 [4]: 24.6 µM (inactive)
- GI50 [8]: 21.3 µM (inactive)
- GI50 [9]: 24.8 µM (inactive)
- GI50 [10]: 45.4 µM (inactive)
- GI50 [13]: 56.8 µM (inactive)
- GI50 [14]: 49.3 µM
- GI50 [16]: 10.5 µM (inactive)
- GI50 [19]: 49.2 µM (inactive)
- GI50 [20]: 19.1 µM (inactive)
- GI50 [23]: 37.8 µM (inactive)
- GI50 [24]: 39.4 µM (inactive)
- GI50 [25]: 26.9 µM (inactive)
- GI50 [27]: 31.9 µM (inactive)
- GI50 [28]: 27.5 µM (inactive)
- GI50 [29]: 24.4 µM (inactive)
- GI50 [30]: 27.5 µM (inactive)
- GI50 [31]: 27.2 µM (inactive)
- GI50 [32]: 33.3 µM (inactive)
- GI50 [57]: 24.8 µM (inactive)
- GI50 [33]: 16.2 µM (inactive)
- GI50 [34]: 65.9 µM (inactive)
- GI50 [36]: 32.9 µM (inactive)
- GI50 [58]: 58.3 µM (inactive)
- GI50 [38]: 50.5 µM (inactive)
- GI50 [39]: 32.7 µM (inactive)
- GI50 [40]: 20.8 µM (inactive)
- GI50 [41]: 54.6 µM (inactive)
- GI50 [42]: 49.5 µM (inactive)
- GI50 [43]: 18.9 µM (inactive)
- GI50 [44]: 13.9 µM (inactive)
- GI50 [45]: 36.5 µM (inactive)
- GI50 [46]: 70.1 µM (inactive)
- GI50 [47]: 35.2 µM (inactive)
- GI50 [48]: 57 µM (inactive)
- GI50 [51]: 38.5 µM (inactive)
- GI50 [53]: 28.1 µM (inactive)
- GI50 [54]: 62.1 µM (inactive)
- GI50 [55]: 12.5 µM (inactive)
- GI50 [56]: 11.2 µM (inactive)

SMILES: Cc1cc2c(cc1CO)N1Cc3cc(C)c(CO)cc3N(C2)C1
- GI50 [1]: > 100 µM (inactive)
- GI50 [3]: > 100 µM (inactive)
- GI50 [6]: > 100 µM (inactive)
- GI50 [7]: > 100 µM (inactive)
- GI50 [8]: > 100 µM (inactive)
- GI50 [9]: > 100 µM (inactive)
- GI50 [10]: > 100 µM (inactive)
- GI50 [11]: > 100 µM (inactive)
- GI50 [12]: > 100 µM (inactive)
- GI50 [13]: > 100 µM (inactive)
- GI50 [15]: > 100 µM (inactive)
- GI50 [16]: > 100 µM (inactive)
- GI50 [17]: > 100 µM (inactive)
- GI50 [19]: > 100 µM (inactive)
- GI50 [20]: > 100 µM (inactive)
- GI50 [21]: > 100 µM (inactive)
- GI50 [22]: > 100 µM (inactive)
- GI50 [23]: > 100 µM (inactive)
- GI50 [24]: > 100 µM (inactive)
- GI50 [25]: > 100 µM (inactive)
- GI50 [26]: > 100 µM (inactive)
- GI50 [27]: > 100 µM (inactive)
- GI50 [28]: > 100 µM (inactive)
- GI50 [30]: > 100 µM (inactive)
- GI50 [31]: > 100 µM (inactive)
- GI50 [32]: > 100 µM (inactive)
- GI50 [57]: > 100 µM (inactive)
- GI50 [33]: > 100 µM (inactive)
- GI50 [34]: > 100 µM (inactive)
- GI50 [36]: > 100 µM (inactive)
- GI50 [37]: > 100 µM (inactive)
- GI50 [58]: > 100 µM (inactive)
- GI50 [38]: > 100 µM (inactive)
- GI50 [39]: > 100 µM (inactive)
- GI50 [40]: > 100 µM (inactive)
- GI50 [41]: > 100 µM (inactive)
- GI50 [43]: > 100 µM (inactive)
- GI50 [44]: > 100 µM (inactive)
- GI50 [45]: > 100 µM (inactive)
- GI50 [46]: > 100 µM (inactive)
- GI50 [47]: > 100 µM (inactive)
- GI50 [48]: > 100 µM (inactive)
- GI50 [50]: > 100 µM (inactive)
- GI50 [51]: > 100 µM (inactive)
- GI50 [52]: > 100 µM (inactive)
- GI50 [54]: > 100 µM (inactive)
- GI50 [56]: > 100 µM (inactive)
